LogP data for 69 compounds are collected here from patent publication US10039283B2, “Substituted pyrazolyl-nicotin(thio)amide derivatives and their use as fungicides” (BAYER CROPSCIENCE AKTIENGESELLSCHAFT, priority 2014, dated 2018).

One series can be described thus: Log P by HPLC on reversed phase, method [a], acidic range (0.1% formic acid). To be noted: LC-UV, 0.1% formic acid in water and acetonitrile. The class given is physicochemical.
In the case of `O=C(Nc1cnn(-c2c(F)cccc2F)c1C(F)(F)F)c1cccnc1C(F)(F)F` [Example 19], the LogP is 2.79^[a];.

Consider `O=C(Nc1cnn(-c2ccccc2Cl)c1C(F)(F)F)c1cccnc1C(F)(F)F` [Example 20], for which the LogP was 2.87^[a];.

As for `O=C(Nc1cnn(-c2c(F)cccc2F)c1C(F)(F)F)c1cccnc1C(F)F` [Example 21], the LogP is 2.50^[a];.

With `O=C(Nc1cnn(-c2ccc(F)cc2)c1Cl)c1cccnc1C(F)F` [Example 190], the LogP is 2.14^[a].

Consider `O=C(Nc1cnn(-c2ccccc2Cl)c1Cl)c1cccnc1C(F)F` [Example 191], for which the LogP was 2.17^[a].

With `O=C(Nc1cnn(-c2ccc(F)cc2)c1Br)c1cccnc1C(F)F` [Example 192], the LogP is 2.17^[a].

For `COc1ccc(-n2ncc(NC(=O)c3cccnc3C(F)F)c2Br)cc1` [Example 193], the LogP is 2.09^[a].

Consider `O=C(Nc1cnn(-c2ccc(Cl)cc2)c1-c1ccc(Cl)cc1)c1cccnc1C(F)F` [Example 194], for which the LogP was 3.35^[a].

Take `O=C(Nc1cnn(-c2ccc(Br)cc2)c1-c1ccc(F)cc1)c1cccnc1C(F)F` [Example 195]: the LogP was 3.20^[a].

Consider `O=C(Nc1cnn(-c2ccc(Br)cc2)c1-c1ccccc1)c1cccnc1C(F)F` [Example 196], for which the LogP was 3.10^[a].

`O=C(Nc1cnn(-c2ccc(Cl)cc2)c1-c1cccc(F)c1)c1cccnc1C(F)F` [Example 197]: the LogP is 3.07^[a].

For `O=C(Nc1cnn(-c2ccc(Cl)cc2)c1-c1ccccc1)c1cccnc1C(F)F` [Example 198], the LogP is 2.99^[a].

Consider `O=C(Nc1cnn(-c2ccc(Br)cc2)c1-c1cccc(Cl)c1)c1cccnc1C(F)F` [Example 199], for which the LogP was 3.46^[a].

As for `O=C(Nc1cnn(-c2ccc(Br)cc2)c1-c1ccc(Cl)cc1)c1cccnc1C(F)F` [Example 200], the LogP is 3.46^[a].

As to `O=C(Nc1cnn(-c2ccc(Br)cc2)c1-c1cccc(F)c1)c1cccnc1C(F)F` [Example 201], the LogP is 3.19^[a].

Regarding `O=C(Nc1cnn(-c2cc(Cl)cc(Cl)c2)c1Cl)c1cccnc1C(F)F` [Example 202], the LogP was 3.19^[a].

Consider `O=C(Nc1cnn(-c2cc(Cl)cc(Cl)c2)c1Br)c1cccnc1C(F)F` [Example 203], for which the LogP is 3.23^[a].

As for `CCc1c(NC(=O)c2cc(C)cnc2C(F)F)cnn1-c1ccccc1C` [Example 204], the LogP is 2.44^[a].

`Cc1cnc(C(F)F)c(C(=O)Nc2cnn(-c3ccccc3C)c2C(C)C)c1` [Example 205]: the LogP was 2.60^[a].

In the case of `CCc1c(NC(=O)c2cc(C)cnc2C(F)F)cnn1-c1cccc(C)c1` [Example 206], the LogP is 2.57^[a].

In the case of `CCc1c(NC(=O)c2cc(C)cnc2C(F)F)cnn1-c1ccc(C)cc1` [Example 207], the LogP is 2.57^[a].

Regarding `Cc1ccc(-n2ncc(NC(=O)c3cc(C)cnc3C(F)F)c2C(C)C)cc1` [Example 208], the LogP is 2.73^[a].

Consider `Cc1cnc(C(F)F)c(C(=O)Nc2cnn(-c3ccccc3Cl)c2C(C)C)c1` [Example 209], for which the LogP was 2.59^[a].

Take `Cc1cnc(C(F)F)c(C(=O)Nc2cnn(-c3cccc(Cl)c3)c2C(C)C)c1` [Example 210]: the LogP is 2.84^[a].

For `Cc1cnc(C(F)F)c(C(=O)Nc2cnn(-c3ccc(Cl)cc3)c2C(C)C)c1` [Example 211], the LogP is 2.86^[a].

`CCc1c(NC(=O)c2cc(C)cnc2C(F)F)cnn1-c1ccccc1Cl` [Example 212]: the LogP is 2.41^[a].

`CCc1c(NC(=O)c2cc(C)cnc2C(F)F)cnn1-c1cccc(Cl)c1` [Example 213]: the LogP is 2.71^[a].

As for `CCc1c(NC(=O)c2cc(C)cnc2C(F)F)cnn1-c1ccc(Cl)cc1` [Example 214], the LogP was 2.73^[a].

Turning to `COc1c(NC(=O)c2cccnc2C(F)F)cnn1-c1ccccc1Cl` [Example 215], the LogP is 1.85^[a].

Take `COc1c(NC(=O)c2cccnc2C(F)F)cnn1-c1cc(Cl)cc(Cl)c1` [Example 216]: the LogP is 3.02^[a].

As for `O=C(Nc1cnn(-c2ccccc2Cl)c1Br)c1cccnc1C(F)F` [Example 217], the LogP is 2.18^[a].

For the compound `COc1c(NC(=O)c2cccnc2C(F)F)cnn1-c1ccc(Cl)cc1` [Example 218], the LogP is 2.32^[a].

Turning to `COc1c(NC(=O)c2cccnc2C(F)F)cnn1-c1ccc(C(F)(F)F)cc1` [Example 219], the LogP was 2.63^[a].

For the compound `O=C(Nc1cnn(-c2ccc(Cl)cc2)c1Br)c1cccnc1C(F)F` [Example 220], the LogP was 2.50^[a].

`O=C(Nc1cnn(-c2ccc(Cl)cc2)c1OCC(F)(F)F)c1cccnc1C(F)F` [Example 221]: the LogP was 2.88^[a].

For `O=C(Nc1cnn(-c2ccc(Cl)cc2)c1OCC(F)F)c1cccnc1C(F)F` [Example 222], the LogP was 2.60^[a].

On to `N#Cc1c(NC(=O)c2cccnc2C(F)F)cnn1-c1ccc(Cl)cc1` [Example 223], for which the LogP is 2.64^[a].

On to `O=C(Nc1cnn(-c2ccc(Cl)cc2)c1SC(F)(F)F)c1cccnc1C(F)F` [Example 224], for which the LogP is 3.25^[a].

Regarding `CCOc1c(NC(=O)c2cccnc2C(F)F)cnn1-c1ccc(Cl)cc1` [Example 225], the LogP was 2.62^[a].

With `CC(C)Oc1c(NC(=O)c2cccnc2C(F)F)cnn1-c1ccc(Cl)cc1` [Example 226], the LogP is 2.86^[a].

Consider `CCCOc1c(NC(=O)c2cccnc2C(F)F)cnn1-c1ccc(Cl)cc1` [Example 227], for which the LogP is 2.95^[a].

For the compound `O=C(Nc1cnn(-c2ccc(Br)cc2)c1SC(F)(F)F)c1cccnc1C(F)F` [Example 228], the LogP was 3.43^[a].

`CCCc1ccc(-n2ncc(NC(=O)c3cccnc3C(F)F)c2C(F)(F)F)cc1` [Example 229]: the LogP is 3.59^[a].

Take `CCOc1ccc(-n2ncc(NC(=O)c3cccnc3C(F)F)c2C(F)(F)F)cc1` [Example 230]: the LogP was 2.88^[a].

Take `CC(C)(C)c1ccc(-n2ncc(NC(=O)c3cccnc3C(F)F)c2C(F)(F)F)cc1` [Example 231]: the LogP was 3.79^[a].

Take `O=C(Nc1cnn(-c2ccc(-c3ccccc3)cc2)c1C(F)(F)F)c1cccnc1C(F)F` [Example 232]: the LogP was 3.59^[a].

Consider `O=C(Nc1cnn(-c2ccc(Oc3ccccc3)cc2)c1C(F)(F)F)c1cccnc1C(F)F` [Example 233], for which the LogP is 3.59^[a].

As to `O=C(Nc1cnn(-c2ccc(I)cc2)c1C(F)(F)F)c1cccnc1C(F)F` [Example 234], the LogP is 3.25^[a].

In the case of `O=C(Nc1cnn(-c2ccc(Br)cc2)c1OCC(F)F)c1cccnc1C(F)F` [Example 235], the LogP was 2.68^[a].

Take `O=C(Nc1cnn(-c2ccc(Cl)cc2)c1C(F)(F)F)c1cccnc1CF` [Example 236]: the LogP is 2.67^[a].

As to `Cc1ncccc1C(=O)Nc1cnn(-c2ccc(Cl)cc2)c1C(F)(F)F` [Example 237], the LogP was 2.12^[a].

`Cc1cccc(-n2ncc(NC(=O)c3cc(C)cnc3C(F)F)c2C(C)C)c1` [Example 238]: the LogP is 2.75^[a].

`CCc1c(NC(=O)c2cc(C)cnc2C(F)F)cnn1-c1cccc(C(F)(F)F)c1` [Example 239]: the LogP is 2.94^[a].

With `CCc1c(NC(=O)c2cc(C)cnc2C(F)F)cnn1-c1ccc(C(F)(F)F)cc1` [Example 240], the LogP was 3.00^[a].

Consider `Cc1cnc(C(F)F)c(C(=O)Nc2cnn(-c3ccc(OC(F)(F)F)cc3)c2C)c1` [Example 241], for which the LogP is 2.86^[a].

Turning to `Cc1c(NC(=O)c2cccnc2C(F)F)cnn1-c1ccc(OC(F)(F)F)cc1` [Example 242], the LogP was 2.64^[a].

With `O=C(Nc1cnn(-c2ccc(SC(F)(F)F)cc2)c1C(F)(F)F)c1cccnc1C(F)F` [Example 243], the LogP is 3.68^[a].

Regarding `O=C(Nc1cnn(-c2ccc(Oc3ccc(Cl)cc3)cc2)c1C(F)(F)F)c1cccnc1C(F)F` [Example 244], the LogP was 4.11^[a].

For the compound `Cc1ccc(Oc2ccc(-n3ncc(NC(=O)c4cccnc4C(F)F)c3C(F)(F)F)cc2)cc1` [Example 245], the LogP was 4.03^[a].

For the compound `CSc1ccc(-n2ncc(NC(=O)c3cccnc3C(F)F)c2C(F)(F)F)cc1` [Example 246], the LogP is 2.94^[a].

Turning to `O=C(Nc1cnn(-c2ccc(OC(F)(F)C(F)F)cc2)c1C(F)(F)F)c1cccnc1C(F)F` [Example 247], the LogP is 3.19^[a].

`O=C(Nc1cnn(-c2ccc(Br)cc2)c1C(F)(F)F)c1cccnc1CF` [Example 248]: the LogP is 2.80^[a].

On to `Cc1ncccc1C(=O)Nc1cnn(-c2ccc(Br)cc2)c1C(F)(F)F` [Example 249], for which the LogP was 2.28^[a].

Regarding `COCc1c(NC(=O)c2cc(C)cnc2C(F)F)cnn1-c1ccc(Br)cc1` [Example 250], the LogP is 2.80^[a].

On to `COCc1c(NC(=O)c2cccnc2C(F)F)cnn1-c1ccc(Br)cc1` [Example 251], for which the LogP was 2.58^[a].

Regarding `O=C(Nc1cnn(-c2ccc(Cl)c(Cl)c2)c1Cl)c1cccnc1C(F)F` [Example 252], the LogP is 3.06^[a].

In the case of `O=C(Nc1cnn(-c2cc(F)c(F)c(F)c2)c1Cl)c1cccnc1C(F)F` [Example 253], the LogP is 2.66^[a].

As to `O=C(Nc1cnn(-c2ccc(OC3CCCCC3)cc2)c1C(F)(F)F)c1cccnc1C(F)F` [Example 254], the LogP was 4.11^[a].

As to `CCc1ccc(-n2ncc(NC(=O)c3cccnc3C(F)F)c2C(F)(F)F)cc1` [Example 255], the LogP was 3.19^[a].

The nature of another series: Log P by HPLC on reversed phase, method [b], neutral range (0.001 molar ammonium acetate). The class given is physicochemical.
Settings: not given
The protocol: Measurement of Log P values was performed according to EEC directive 79/831 Annex V.A8 by HPLC (High Performance Liquid Chromatography) on reversed phase columns with the following methods: [b] Log P value is determined by measurement of LC-UV, in a neutral range, with 0.001 molar ammonium acetate solution in water and acetonitrile as eluent (linear gradient from 10% acetonitrile to 95% acetonitrile). Calibration was done with straight-chain alkan2-ones (with 3 to 16 carbon atoms) with known Log P values (measurement of Log P values using retention times with linear interpolation between successive alkanones). Lambda-max-values were determined using UV-spectra from 200 nm to 400 nm and the peak values of the chromatographic signals.
Consider `O=C(Nc1cnn(-c2c(F)cccc2F)c1C(F)(F)F)c1cccnc1C(F)(F)F` [Example 19], for which the LogP is 2.72^[b].

As to `O=C(Nc1cnn(-c2ccccc2Cl)c1C(F)(F)F)c1cccnc1C(F)(F)F` [Example 20], the LogP is 2.80^[b].

With `O=C(Nc1cnn(-c2c(F)cccc2F)c1C(F)(F)F)c1cccnc1C(F)F` [Example 21], the LogP is 2.43^[b].
